Laboratory results taken from article PMC9551036, “A selective and orally bioavailable VHL-recruiting PROTAC achieves SMARCA2 degradation in vivo” (Nature Communications, 2022).
“And” between values parts separate entries of the source, which are not always exact repeats. Identical values can stand only once. Like-named read-outs stand apart in the source and are kept apart here.

Assays:
[1] = target: VCB: PROTAC: SMARCA2^BD ternary complex (Homo sapiens, UniProt P40337+P51531); assay: TR-FRET ternary complex affinity and cooperativity, SMARCA2; assay type: binding; parameters: P51531-2, residues 1373-1493 with additional N-terminal SM residues; GST (TEV site) (N); His6 (TEV site) (N, cleaved yes); made in house; host or cells: SMARCA2^BD: Escherichia coli BL21(DE3)
VCB: PROTAC: SMARCA2^BD ternary complex, sequence (P51531 with tags, fused parts or gaps isoform P51531-2): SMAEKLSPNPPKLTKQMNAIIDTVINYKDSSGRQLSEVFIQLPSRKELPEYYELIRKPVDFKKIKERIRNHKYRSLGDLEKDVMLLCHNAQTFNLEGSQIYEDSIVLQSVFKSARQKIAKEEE
VCB: PROTAC: SMARCA2^BD ternary complex, sequence (P40337 54-213): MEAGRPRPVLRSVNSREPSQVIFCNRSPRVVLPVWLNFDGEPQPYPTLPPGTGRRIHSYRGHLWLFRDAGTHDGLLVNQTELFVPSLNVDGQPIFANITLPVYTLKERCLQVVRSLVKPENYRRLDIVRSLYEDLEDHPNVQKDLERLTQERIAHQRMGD
VCB: PROTAC: SMARCA2^BD ternary complex, sequence (Q15369 17-112 partner): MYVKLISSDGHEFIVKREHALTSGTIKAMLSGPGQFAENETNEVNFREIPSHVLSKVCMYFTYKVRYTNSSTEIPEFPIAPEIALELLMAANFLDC
VCB: PROTAC: SMARCA2^BD ternary complex, sequence (Q15370 1-104 partner): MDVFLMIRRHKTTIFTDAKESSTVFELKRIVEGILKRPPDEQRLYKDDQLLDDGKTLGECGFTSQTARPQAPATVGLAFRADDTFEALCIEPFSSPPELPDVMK

SMARCA4^BD = target: T1, SMARCA4^BD (Homo sapiens, UniProt P51532); assay: SPR binding to immobilised SMARCA4 bromodomain
T1 construct: P51532, residues 1448–1569 with additional N-terminal SM residues; GST (TEV site) (N, cleaved yes); made in house; host or cells: Escherichia coli BL21(DE3); construct from SGC Toronto
T1 sequence (P51532 1448-1569): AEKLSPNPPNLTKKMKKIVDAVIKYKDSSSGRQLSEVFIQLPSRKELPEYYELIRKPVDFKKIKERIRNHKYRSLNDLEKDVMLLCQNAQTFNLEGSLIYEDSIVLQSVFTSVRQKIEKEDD
Method: SMARCA4^BD was provided by the Structural Genomics Consortium (SGC), Toronto[32] and SMARCA2^BD and PRM1^BD5 were synthesised by GeneArt then subcloned into pDEST15 vectors (Invitrogen). The VCB complex was expressed and purified as described previously, with the modification that 0.3 mM IPTG was used for induction of expression. […] Both were stored in 20 mM 4-(2-hydroxyethyl)−1-piperazineethanesulfonic acid (HEPES), 150 mM sodium chloride and 1 mM tris(2-carboxyethyl)phosphine (TCEP) pH 7.5. SMARCA2^BD, SMARCA4^BD and PBRM1^BD5 were expressed in Escherichia coli BL21(DE3) as N-terminal GST fusion proteins with a TEV protease cleavage site. Expression and purification of these proteins has been described previously[32],[33]. Starter cultures were grown overnight at 37 °C in 10 mL of Luria-Bertani (LB) medium with ampicillin (100 μg/mL). The starter cultures were diluted (1:100) in Terrific Broth (TB) medium with ampicillin (100 μg/mL) and grown in a shaking incubator at 37 °C to an optical density (OD600) ~1 before the temperature was lowered for induction (to 23 °C for SMARCA2^BD or 18 °C for SMARCA4^BD and PRRM1^BD5). […] Cells were harvested by centrifugation and stored at −80 °C prior to purification. Cells were resuspended in Lysis buffer and lysed by sonication (20 pulses of 5 s for 4 min) using a Sonopuls HD 3080 (Bandelin, Berlin, Germany) or by homogenisation using a Stansted Pressure Cell Homogeniser (Stansted Fluid Power). The Lysis buffers were as follows: for SMARCA2^BD: 50 mM HEPES, 500 mM sodium chloride, 5% glycerol, 5 mM dithiothreitol (DTT); for SMARCA4^BD: 25 mM HEPES, 0.3 M sodium chloride, 5% glycerol, 10 mM DTT, pH 7.5; for PBRM1^BD5: 25 mM HEPES, 300 mM sodium chloride, 5% glycerol, 10 mM DTT, pH 7.8; in each case supplemented with complete protease inhibitors (Roche). Affinity purification was performed using Glutathione Sepharose 4B (GE Healthcare) in batch mode or on-column. […] For SMARCA2^BD, prior to TEV protease cleavage the eluted GST-tagged BD was first dialysed into desalting buffer (20 mM HEPES, 250 mM sodium chloride, pH 7.0 + 0.5% glycerol). Where TEV cleavage was performed in solution, a second affinity (GST-trap) column purification step was carried out to remove the GST-tag and uncleaved GST-tagged protein. Proteins were further purified by SEC (HiLoad Superdex-75, 16/600) (GE Healthcare) and stored in Storage buffer (for SMARCA2^BD: 20 mM HEPES, 150 mM sodium chloride, pH 7.5; for SMARCA4^BD: 10 mM HEPES, 0.5 M NaCl, 5% glycerol, pH 7.5; for PBRM1^BD5: 20 mM HEPES, 300 mM NaCl, 5 mM DTT, pH 7.8). For AlphaScreen assays, eluted GST-tagged BDs were purified directly by SEC in the respective storage buffers without TEV cleavage. All chromatography purification steps were performed either at room temperature or 4 °C using an ÄKTA FPLC purification system (GE Healthcare) or a plastic Econo-Pac column (Bio-Rad).
SPR data were acquired on Biacore 8K or T200 instruments (Cytiva). Target proteins were immobilised at 25 °C on CM5 chips by amine coupling (EDC/NHS, Cytiva) in HBS-P+ running buffer (pH 7.4), containing 2 mM TCEP. After surface activation with EDC/NHS (contact time 420 s, flow rate 10 µl/min) SMARCA2^BD and SMARCA4^BD at 0.01–0.05 mg/ml in coupling buffer (10 mM Na-Acetate pH 6.5, 0.005% TWEEN 20 and 50 µM PFI-3[13]) were immobilised to a density of 100–5000 Response Units (RU). The reference surface was subsequently deactivated using 1 M ethanolamine. For VCB immobilisation, streptavidin (Sigma Aldrich, prepared at 1 mg/ml in 10 mM sodium acetate coupling buffer, pH 5.0) was immobilised by amine coupling to a density of 3000–5000 RU after which biotinylated VCB complex (0.125 mM in running buffer) was streptavidin-coupled to a density of 100–500 RU. Biotinylated VCB was prepared as previously described[27]: in brief, the complex was mixed 1:1 with EZ-Link NHS–PEG4–biotin (Thermo Scientific) and incubated at room temperature for 1 h.

SMARCA2 = SMARCA2 (Homo sapiens, UniProt P51531); assay: Imaging-based SMARCA2 protein assay in RKO cells; assay type: cell-based; parameters: endogenous in cells; host or cells: RKO, NCI-H1568, A549, HCT116, LU99, HCC-364, HCT-15, HCC4006, SK-N-AS; conditions: individual replicates
SMARCA2, sequence (P51531 whole entry): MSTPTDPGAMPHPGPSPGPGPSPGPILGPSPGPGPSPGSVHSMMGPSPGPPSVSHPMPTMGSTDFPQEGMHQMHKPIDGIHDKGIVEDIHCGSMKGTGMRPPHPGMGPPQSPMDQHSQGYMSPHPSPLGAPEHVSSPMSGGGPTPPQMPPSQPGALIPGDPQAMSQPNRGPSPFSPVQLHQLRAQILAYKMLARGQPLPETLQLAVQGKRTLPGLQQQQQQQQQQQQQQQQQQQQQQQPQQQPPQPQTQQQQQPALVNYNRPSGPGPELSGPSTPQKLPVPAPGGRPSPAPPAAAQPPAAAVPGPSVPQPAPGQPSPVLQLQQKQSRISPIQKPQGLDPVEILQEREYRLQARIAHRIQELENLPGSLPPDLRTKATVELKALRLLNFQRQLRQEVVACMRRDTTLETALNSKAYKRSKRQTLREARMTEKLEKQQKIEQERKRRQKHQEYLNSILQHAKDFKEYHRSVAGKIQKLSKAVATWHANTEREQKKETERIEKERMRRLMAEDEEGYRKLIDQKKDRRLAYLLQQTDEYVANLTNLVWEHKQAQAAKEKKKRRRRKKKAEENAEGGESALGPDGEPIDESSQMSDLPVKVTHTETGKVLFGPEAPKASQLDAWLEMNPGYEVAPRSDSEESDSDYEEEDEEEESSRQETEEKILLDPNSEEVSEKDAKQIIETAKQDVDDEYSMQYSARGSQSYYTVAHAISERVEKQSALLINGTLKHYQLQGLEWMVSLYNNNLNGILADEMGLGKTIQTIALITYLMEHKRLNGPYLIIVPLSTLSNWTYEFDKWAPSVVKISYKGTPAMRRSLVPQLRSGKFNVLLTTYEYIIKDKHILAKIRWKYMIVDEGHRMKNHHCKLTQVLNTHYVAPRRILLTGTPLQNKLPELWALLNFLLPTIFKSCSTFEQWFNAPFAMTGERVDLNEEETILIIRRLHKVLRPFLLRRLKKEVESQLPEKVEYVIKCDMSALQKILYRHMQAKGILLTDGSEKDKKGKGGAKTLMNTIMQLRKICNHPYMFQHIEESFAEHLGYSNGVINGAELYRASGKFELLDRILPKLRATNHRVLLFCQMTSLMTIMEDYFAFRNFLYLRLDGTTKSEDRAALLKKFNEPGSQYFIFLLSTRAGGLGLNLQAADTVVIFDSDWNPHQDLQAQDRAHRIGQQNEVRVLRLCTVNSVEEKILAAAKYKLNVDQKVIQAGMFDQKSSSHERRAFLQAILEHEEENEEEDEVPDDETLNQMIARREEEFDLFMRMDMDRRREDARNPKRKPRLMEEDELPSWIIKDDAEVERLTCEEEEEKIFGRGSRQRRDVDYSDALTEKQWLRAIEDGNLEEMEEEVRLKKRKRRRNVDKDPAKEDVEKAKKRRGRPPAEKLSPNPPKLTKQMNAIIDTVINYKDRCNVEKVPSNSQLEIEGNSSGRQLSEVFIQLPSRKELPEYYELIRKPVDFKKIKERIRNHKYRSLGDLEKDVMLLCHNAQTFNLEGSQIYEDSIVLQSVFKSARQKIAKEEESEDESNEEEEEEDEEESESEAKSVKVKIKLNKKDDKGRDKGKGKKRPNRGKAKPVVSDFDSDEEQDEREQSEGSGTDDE
Method: 1250 cells per well in 60 µl medium were plated in flat bottom, poly-lysin coated 384-well plates (CellCarrier Ultra, Perkin Elmer). The next day, test compounds (10 µl of serial dilutions) and DMSO controls were diluted in DMEM medium such that the final DMSO content was <1% or were added using an ultrasound dispensing system. 4 wells were reserved for a background measurement. […] After aspirating the fixing solution, the cells were washed once with 25 µl PBS. 25 µl of blocking buffer (10% goat serum in PBS) was added and cells were incubated for 30 min, then washed once with PBS. […] Cells were again washed once with PBS. […] The cell layer was then washed once with 25 µl PBS, the wells were filled with 25 µl PBS and the plates were sealed with an adhesive sheet. They were then imaged on the Opera Phoenix (mean intensity in the nucleus). […] EC50 values were computed using a 4-parametric logistic model.

[2] = PROTAC + VCB, individual replicates, read-out: Ternary SMARCA2 BD EC50 (PROTAC + VCB)
[3] = TR-FRET competition for SMARCA2BD, + VCB, mean ± SD, read-out: TR-FRET Ternary SMARCA2BD EC50 (PROTAC + VCB)
[4] = 4h, read-out: RKO (4h) SMARCA2 DC50
[5] = 18h, read-out: RKO (18h) SMARCA2 DC50

Compound | EC50 [1, 2] | EC50 [1, 3] [nM] | Kd (SMARCA4^BD; SMARCA4BD, mean ± SD) [nM] | Kd (SMARCA4^BD; individual replicates) | DC50 (SMARCA2; [4]) | DC50 (SMARCA2; [5])
Nc1cccc2c1c(=O)nc1n(C3CCCC3)c3ccccc3n21 [compound 2] | 1910 nM and 2000 nM and 1540 nM and 2490 nM | 1950 | 2750 ± 455 | 2.74 µM and 2.3 µM and 3.21 µM and > 2 µM (2×) | > 25000 nM | > 25000 nM
O=c1nc2n(C3CCCC3)c3ccccc3n2c2cccc(Br)c12 [compound 1] | 381 nM and 365 nM and 425 nM | 389 ± 31 | 1680 ± 317 | 1320 nM and 1830 nM and 1900 nM | > 25000 nM | > 25000 nM
CN1CCN(c2nc(=O)c3ccccc3o2)CC1 [compound 14] | > 10000 nM | – | – | > 200000 nM and 140000 nM | > 25000 nM | > 25000 nM
CN1CCN(c2nc(=O)c3c(I)cccc3o2)CC1 [compound 16] | > 10000 nM | – | 22100 ± 1230 | 23100 nM and 20700 nM and 22400 nM | > 25000 nM | > 25000 nM
Cc1ncsc1-c1ccc([C@H](CCCCCN2CCC(c3ccc4c(c3)n(C3CCCC3)c3nc(=O)c5c(Br)cccc5n43)CC2)NC(=O)[C@@H]2C[C@@H](O)CN2C(=O)[C@@H](NC(=O)C2(F)CC2)C(C)(C)C)cc1 [compound 11] | 26.6 nM and 19.7 nM and 14.3 nM and 29.6 nM and 31.9 nM and 31.5 nM and 26.3 nM and 35.9 nM and 20.9 nM and 21.5 nM and 24.4 nM | 25 ± 6 | 297 ± 147 | 201 nM and 223 nM and 466 nM | 1.71 nM and 0.766 nM and 2.04 nM and 3.68 nM | 0.942 nM and 1.07 nM and 0.993 nM and 0.885 nM
CN1CCN(c2nc(=O)c3c(Br)cccc3o2)CC1 [compound 15] | > 10000 nM | – | 12000 ± 902 | 12900 nM and 11900 nM and 11100 nM | > 25000 nM | > 25000 nM
Cc1ncsc1-c1ccc([C@H](COCCN2CCC(c3ccc4c(c3)n(C3CCCC3)c3nc(=O)c5c(Br)cccc5n43)CC2)NC(=O)[C@@H]2C[C@@H](O)CN2C(=O)[C@@H](NC(=O)C2(N(C)C)CC2)C(C)(C)C)cc1 [compound 26] | 13.6 nM and 14.3 nM and 15.5 nM and 15.9 nM and 16.4 nM and 11.2 nM and 10.2 nM and 21.5 nM and 22 nM and 6 nM and 9.26 nM | 13 ± 5 | 210 ± 17 | 202 nM and 199 nM and 229 nM | 13.4 nM and 7.13 nM and 22 nM and 9.24 nM | 3.5 nM and 6.73 nM and 7.09 nM
Cc1ncsc1-c1ccc(C(CCC(C)CCN2CCC(c3ccc4c(c3)n(C3CCCC3)c3nc(=O)c5c(Br)cccc5n43)CC2)NC(=O)C2CC(O)CN2C(=O)C(NC(=O)C2(F)CC2)C(C)(C)C)cc1 (stereo not shown) [ACBI2] | 40 nM and 41.1 nM and 43.2 nM and 39.8 nM and 44 nM | 42 ± 2 | 314 ± 76 | 236 nM and 318 nM and 388 nM | 3.55 nM and 1.63 nM and 1.77 nM and 3.45 nM and 4.01 nM and 4.03 nM and 3.11 nM | 2 nM and 2.28 nM and 1.37 nM and 1.63 nM and 1.15 nM and 1.22 nM and 1.53 nM and 0.997 nM and 1.43 nM and 0.892 nM
Cc1ncsc1-c1ccc(CNC(=O)[C@@H]2C[C@@H](O)CN2C(=O)[C@@H](NC(=O)C2(F)CC2)C(C)(C)C)c(OCCN2CCC(c3ccc4c(c3)n(C3CCCC3)c3nc(=O)c5c(Br)cccc5n43)CC2)c1 [compound 20] | 140 nM and 137 nM and 122 nM and 109 nM and 217 nM | 141 ± 42 | 182 ± 23 | 157 nM and 202 nM and 187 nM | > 25000 nM | –
Cc1ncsc1-c1ccc(CNC(=O)[C@@H]2C[C@@H](O)CN2C(=O)[C@@H](NC(=O)C2(F)CC2)C(C)(C)C)c(OCCOCCOCCOCCN2CCC(c3ccc4c(c3)n(C3CCCC3)c3nc(=O)c5c(Br)cccc5n43)CC2)c1 [compound 22] | 95.1 nM and 86.8 nM and 90.2 nM and 144 nM | 102 ± 27 | 1430 ± 339 | 1040 nM and 1650 nM and 1600 nM | 85.8 nM and 400 nM and 157 nM | 97.4 nM and 276 nM and 121 nM
Cc1ncsc1-c1ccc([C@H](COC(C)(C)CN2CCC(c3ccc4c(c3)n(C3CCCC3)c3nc(=O)c5c(Br)cccc5n43)CC2)NC(=O)[C@@H]2C[C@@H](O)CN2C(=O)[C@@H](NC(=O)C2(F)CC2)C(C)(C)C)cc1 [compound 28] | 34 nM and 37.9 nM and 38.6 nM and 39.5 nM and 28.8 nM and 36.1 nM and 40.6 nM and 27.9 nM and 35.6 nM and 32 nM | 35 ± 4 | 278 ± 14 | 267 nM and 293 nM and 274 nM | 14.7 nM and 15 nM and 30.1 nM and 11.8 nM | 3.23 nM and 5.17 nM and 7.73 nM and 5.43 nM
Cc1ncsc1-c1ccc([C@H](COC(C)CN2CCC(c3ccc4c(c3)n(C3CCCC3)c3nc(=O)c5c(Br)cccc5n43)CC2)NC(=O)[C@@H]2C[C@@H](O)CN2C(=O)[C@@H](NC(=O)C2(F)CC2)C(C)(C)C)cc1 (stereo partly shown) [compound 9] | 20.6 nM and 18 nM and 20.2 nM and 22.8 nM and 25.6 nM and 25.2 nM and 34 nM and 21.7 nM and 14.5 nM and 19.9 nM and 18.7 nM | 21 ± 5 | 505 ± 184 | 361 nM and 443 nM and 712 nM | 11.4 nM and 10.4 nM and 9.77 nM and 18.8 nM | 4.73 nM and 4.97 nM and 4.9 nM and 3.53 nM
